For this assay, the system named is IFNγ-Induced NO Production in RAW 264.7 cells. In words: Nitric Oxide Suppression Assay (suppression of IFNγ-induced NO production). The class given is cell-based. The following applies: RAW264.7; RAW 264.7 mouse macrophage cells, 20 ng/mL interferon gamma, Griess detection; single curve fit to mean data of n=2-3. The method, then:
RAW 264.7, a mouse macrophage cell line, was obtained from American Type Culture Collection (Manassas Va.) and maintained in the log phase of growth in Dulbecco's Modified Eagle's Medium (DMEM), 10% heat inactivated fetal calf serum and 100 units/mL antibiotic-antimycotic (AA). Cells were cultured and maintained in a humidified incubator at 37° C. under 5% CO2 and 95% air. Cells were sub-cultured every 3 days by scraping and were not used beyond passage 20. All cell culture supplies were obtained from Life Technologies (Grand Island, N.Y.).
RAW 264.7 cells were plated 1 day in advance of experiment at a concentration of 80,000 cells/well onto CellBIND® 96 well plates (Corning, N.Y.) in a total volume of 100 μL. The next day, pre-treat cells with compounds (from 3 μM to 0.3 nM serially diluted in a 10 point curve) from a 10× stock by adding 10 μL per well in complete DMEM media containing 10% fetal calf serum. The plates were centrifuged for 3 minutes at 400×g at room temperature followed by 2 hour incubation at 37° C. The cells were then incubated overnight at 37° C. with 10 μL of the insult, interferon gamma (R&D Systems, Minneapolis, Minn.), from a 10× stock for a final concentration of 20 ng/mL. The plates were centrifuged for 3 minutes at 400×g at room temperature followed by 18 hour incubation at 37° C. The following day, transfer 50 μL cell culture supernatant from each well into a clear bottom 96 well plate and follow the instructions from Promega's Griess Detection Kit #G2930 (Madison, Wis.) which involves the addition of 50 μL of the provided sulfanilamide solution for a 5-10 minute incubation at room temperature. Next add 50 μL of the provided N-1-napthylethylenediamine dihydrochloride (NED) solution for a 5-10 minute incubation at room temperature and protected from light. If any air bubbles were introduced into the well, the plates need to be centrifuged for 5 minutes at 400×g at room temperature to avoid interference with absorbance readings. The plates were read for absorbance within 30 minutes with a filter between 520 nm and 550 nm.
For the ability of compounds to suppress the increase in nitric oxide release, the percent maximal intensity of nitric oxide detected in each well was normalized to that induced by the peak value for 20 ng/mL of interferon gamma alone and plotted against the compound concentration to calculate IC50 values and to control for plate-to-plate variability. Concentration-response data were analyzed using GraphPad Prism (San Diego, Calif.); the IC50 values were derived from a single curve fit to the mean data of n=2-3, in duplicates.
All compounds were dissolved in dimethyl sulfoxide at 10 mM stock solutions and tested at a concentration that the dimethyl sulfoxide levels never exceeded 1%.
For orientation: The Griess reaction detects nitrite, a stable product of nitric oxide.

The values that follow come from patent publication US20140073700A1, “[…] ACID DERIVATIVES AND METHODS OF USE THEREOF” (AbbVie Inc., priority 2012, published 2014).

Broadly, the IC50 is the concentration at which inhibition is half-maximal. A lower IC50 goes with greater potency. Compound `CC1(C)C(=O)C(C#N)=C[C@]2(C)C3=CC(=O)[C@]4(O)[C@@H]5C[C@@](C)(C(=O)NCc6ccno6)CC[C@]5(C)CC[C@@]4(C)[C@]3(C)CC[C@@H]12` [Example 30, (2S,4aS,6aS,6bR,8aR,12aS,14aS,14bR)-11-cyano-14a-hydroxy-2,4a,6a,6b,9,9,12a-heptamethyl-N-(1,2-oxazol-5-ylmethyl)-10,14-dioxo-1,2,3,4,4a,5,6,6a,6b,7,8,8a,9,10,12a,14,14a,14b-octadecahydropicene-2-carboxamide] came in with an IC50 of 12.4 nM. In the case of `COCC(COC)NC(=O)[C@@]1(C)CC[C@]2(C)CC[C@]3(C)[C@H](C(=O)C=C4[C@@]5(C)C=C(C#N)C(=O)C(C)(C)[C@@H]5CC[C@]43C)[C@@H]2C1` [Example 37, (2S,4aS,6aR,6bS,8aR,12aS,14aR,14bS)-11-cyano-N-(1,3-dimethoxypropan-2-yl)-2,4a,6a,6b,9,9,12a-heptamethyl-10,14-dioxo-1,2,3,4,4a,5,6,6a,6b,7,8,8a,9,10,12a,14,14a,14b-octadecahydropicene-2-carboxamide] it was 15.8 nM; in that of `CC1(C)C(=O)C(C#N)=C[C@]2(C)C3=CC(=O)[C@]4(O)[C@@H]5C[C@@](C)(C(=O)NCc6cnco6)CC[C@]5(C)CC[C@@]4(C)[C@]3(C)CC[C@@H]12` [Example 3, (2S,4aS,6aS,6bR,8aR,12aS,14aS,14bR)-11-cyano-14a-hydroxy-2,4a,6a,6b,9,9,12a-heptamethyl-N-(1,3-oxazol-5-ylmethyl)-10,14-dioxo-1,2,3,4,4a,5,6,6a,6b,7,8,8a,9,10,12a,14,14a,14b-octadecahydropicene-2-carboxamide], 14.6 nM. In the case of `CC(C)CCNC(=O)[C@@]1(C)CC[C@]2(C)CC[C@@]3(C)[C@]4(C)CC[C@H]5C(C)(C)C(=O)C(C#N)=C[C@]5(C)C4=CC(=O)[C@]3(O)[C@@H]2C1` [Example 17, (2S,4aS,6aS,6bR,8aR,12aS,14aS,14bR)-11-cyano-14a-hydroxy-2,4a,6a,6b,9,9,12a-heptamethyl-N-(3-methylbutyl)-10,14-dioxo-1,2,3,4,4a,5,6,6a,6b,7,8,8a,9,10,12a,14,14a,14b-octadecahydropicene-2-carboxamide] it was 24 nM. In the case of `CC1(C)C(=O)C(C#N)=C[C@]2(C)C3=CC(=O)[C@]4(O)[C@@H]5C[C@@](C)(C(=O)NCc6ccnnc6)CC[C@]5(C)CC[C@@]4(C)[C@]3(C)CC[C@@H]12` [Example 5, (2S,4aS,6aS,6bR,8aR,12aS,14aS,14bR)-11-cyano-14a-hydroxy-2,4a,6a,6b,9,9,12a-heptamethyl-10,14-dioxo-N-(pyridazin-4-ylmethyl)-1,2,3,4,4a,5,6,6a,6b,7,8,8a,9,10,12a,14,14a,14b-octadecahydropicene-2-carboxamide] it was 50 nM; in that of `CC1(C)C(=O)C(C#N)=C[C@]2(C)C3=CC(=O)[C@]4(O)[C@@H]5C[C@@](C)(C(=O)N6CCCC6)CC[C@]5(C)CC[C@@]4(C)[C@]3(C)CC[C@@H]12` [Example 31, (4aR,6aR,6bS,8aS,11S,12aR,12bS,14bS)-12b-hydroxy-4,4,6a,6b,8a,11,14b-heptamethyl-3,13-dioxo-11-(pyrrolidin-1-ylcarbonyl)-3,4,4a,5,6,6a,6b,7,8,8a,9,10,11,12,12a,12b,13,14b-octadecahydropicene-2-carbonitrile], 19.3 nM. In turn, `CC(O)CNC(=O)[C@@]1(C)CC[C@]2(C)CC[C@@]3(C)[C@]4(C)CC[C@H]5C(C)(C)C(=O)C(C#N)=C[C@]5(C)C4=CC(=O)[C@]3(O)[C@@H]2C1` (stereo partly drawn) [Example 19, (2S,4aS,6aS,6bR,8aR,12aS,14aS,14bR)-11-cyano-14a-hydroxy-N-(2-hydroxypropyl)-2,4a,6a,6b,9,9,12a-heptamethyl-10,14-dioxo-1,2,3,4,4a,5,6,6a,6b,7,8,8a,9,10,12a,14,14a,14b-octadecahydropicene-2-carboxamide] had an IC50 of 67.9 nM. Turning to `COC(=O)[C@@]1(C)CC[C@]2(C)CC[C@@]3(C)[C@]4(C)CC[C@H]5C(C)(C)C(=O)C(C#N)=C[C@]5(C)C4=CC(=O)[C@]3(O)[C@@H]2C1` [Example 1, (2S,4aS,6aS,6bR,8aR,12aS,14aS,14bR)-methyl 11-cyano-14a-hydroxy-2,4a,6a,6b,9,9,12a-heptamethyl-10,14-dioxo-1,2,3,4,4a,5,6,6a,6b,7,8,8a,9,10,12a,14,14a,14b-octadecahydropicene-2-carboxylate], the IC50 turned out to be 16.1 nM.

On to `COc1ccc(NC(=O)[C@@]2(C)CC[C@]3(C)CC[C@@]4(C)[C@]5(C)CC[C@H]6C(C)(C)C(=O)C(C#N)=C[C@]6(C)C5=CC(=O)[C@]4(O)[C@@H]3C2)cc1` [Example 27, (2S,4aS,6aS,6bR,8aR,12aS,14aS,14bR)-11-cyano-14a-hydroxy-N-(4-methoxyphenyl)-2,4a,6a,6b,9,9,12a-heptamethyl-10,14-dioxo-1,2,3,4,4a,5,6,6a,6b,7,8,8a,9,10,12a,14,14a,14b-octadecahydropicene-2-carboxamide], for which 13.6 nM corresponded to half-maximal inhibition (IC50). In the case of `COCCNC(=O)[C@@]1(C)CC[C@]2(C)CC[C@@]3(C)[C@]4(C)CC[C@H]5C(C)(C)C(=O)C(C#N)=C[C@]5(C)C4=CC(=O)[C@]3(O)[C@@H]2C1` [Example 16, (2S,4aS,6aS,6bR,8aR,12aS,14aS,14bR)-11-cyano-14a-hydroxy-N-(2-methoxyethyl)-2,4a,6a,6b,9,9,12a-heptamethyl-10,14-dioxo-1,2,3,4,4a,5,6,6a,6b,7,8,8a,9,10,12a,14,14a,14b-octadecahydropicene-2-carboxamide] it was 8.6 nM.
